Measured values: PubChem BioAssay (NCI)
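Step 1: Grow cells in 96-well plates. Step 2: Expose to compound for 48 hours at 5 concentrations. Step 3: Interpolate endpoints linearly; if unreached, use highest concentration. The concentration for 50% growth inhibition is given as GI50. TGI denotes the concentration required for complete inhibition of growth.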

Assays:
Assay in all cases: DTP human tumour cell line panel, 48 h
A498 renal = test system: A498 renal
HOP-62 NSCLC = test system: HOP-62 NSCLC
MDA-MB-231 breast = test system: MDA-MB-231 breast
OVCAR-3 ovarian = test system: OVCAR-3 ovarian
SK-MEL-5 melanoma = test system: SK-MEL-5 melanoma
HCC-2998 colon = test system: HCC-2998 colon
OVCAR-4 ovarian = test system: OVCAR-4 ovarian
SN12C renal = test system: SN12C renal
SW-620 colon = test system: SW-620 colon
SR leukemia = test system: SR leukemia
NCI-H23 lung = test system: NCI-H23 lung
IGROV1 ovarian = test system: IGROV1 ovarian
UO-31 renal = test system: UO-31 renal
NCI-H460 lung = test system: NCI-H460 lung
A549 NSCLC = test system: A549 NSCLC
MALME-3M melanoma = test system: MALME-3M melanoma
COLO 205 colon = test system: COLO 205 colon
HCT-15 colon = test system: HCT-15 colon
786-0 renal = test system: 786-0 renal
SK-MEL-28 melanoma = test system: SK-MEL-28 melanoma
U251 CNS = test system: U251 CNS
HS 578T breast = test system: HS 578T breast
SK-MEL-2 melanoma = test system: SK-MEL-2 melanoma
LOX IMVI melanoma = test system: LOX IMVI melanoma
HT29 colon = test system: HT29 colon
BT-549 breast = test system: BT-549 breast
OVCAR-5 ovarian = test system: OVCAR-5 ovarian
SF-539 CNS = test system: SF-539 CNS
MOLT-4 leukemia = test system: MOLT-4 leukemia
SF-268 CNS = test system: SF-268 CNS
MCF7 breast = test system: MCF7 breast
SK-OV-3 ovarian = test system: SK-OV-3 ovarian
MDA-MB-435 = test system: MDA-MB-435
ACHN renal = test system: ACHN renal
NCI/ADR-RES ovarian = test system: NCI/ADR-RES ovarian
NCI-H522 lung = test system: NCI-H522 lung
HCT-116 colon = test system: HCT-116 colon
M14 melanoma = test system: M14 melanoma
UACC-257 melanoma = test system: UACC-257 melanoma
HL-60(TB) leukemia = test system: HL-60(TB) leukemia
SNB-75 CNS = test system: SNB-75 CNS
SNB-19 CNS = test system: SNB-19 CNS
HOP-92 NSCLC = test system: HOP-92 NSCLC
RXF 393 renal = test system: RXF 393 renal
CCRF-CEM leukemia = test system: CCRF-CEM leukemia
UACC-62 melanoma = test system: UACC-62 melanoma
TK-10 renal = test system: TK-10 renal
RPMI-8226 leukemia = test system: RPMI-8226 leukemia
EKVX NSCLC = test system: EKVX NSCLC
OVCAR-8 ovarian = test system: OVCAR-8 ovarian
SF-295 CNS = test system: SF-295 CNS
PC-3 prostate = test system: PC-3 prostate
KM12 colon = test system: KM12 colon
DU-145 prostate = test system: DU-145 prostate
K-562 leukemia = test system: K-562 leukemia
T-47D breast = test system: T-47D breast
CAKI-1 renal = test system: CAKI-1 renal
NCI-H226 lung = test system: NCI-H226 lung

## C=CCn1c(SCC(=O)Nc2ccc(C(=O)/C=C/c3cc(OC)c(OC)c(OC)c3)cc2)nnc1-c1cc(OC)c(OC)c(OC)c1
A498 renal
  GI50: 7.4 µM
  TGI: 20.3 µM
HOP-62 NSCLC
  GI50: 5.17 µM
  TGI: 37.9 µM
MDA-MB-231 breast
  GI50: 3.81 µM
  TGI: > 100 µM
OVCAR-3 ovarian
  GI50: 2.98 µM
  TGI: 8.46 µM
SK-MEL-5 melanoma
  GI50: 4.27 µM
  TGI: 16 µM
HCC-2998 colon
  GI50: 2.05 µM
  TGI: 4.48 µM
OVCAR-4 ovarian
  GI50: 5.67 µM
  TGI: 38.6 µM
SN12C renal
  GI50: 4.74 µM
  TGI: > 100 µM
SW-620 colon
  GI50: 3.37 µM
  TGI: 16 µM
SR leukemia
  GI50: 2.34 µM
  TGI: > 100 µM
NCI-H23 lung
  GI50: 3.41 µM
  TGI: 26 µM
IGROV1 ovarian
  GI50: 3.42 µM
  TGI: 18.4 µM
UO-31 renal
  GI50: 4.18 µM
  TGI: 17.5 µM
NCI-H460 lung
  GI50: 3.76 µM
  TGI: 14.5 µM
A549 NSCLC
  GI50: 6.46 µM
  TGI: 36.5 µM
MALME-3M melanoma
  GI50: 11.1 µM
  TGI: 64.4 µM
COLO 205 colon
  GI50: 4.94 µM
  TGI: 24.7 µM
HCT-15 colon
  GI50: 1.86 µM
  TGI: 5.61 µM
786-0 renal
  GI50: 1.85 µM
  TGI: 4.01 µM
SK-MEL-28 melanoma
  GI50: 3.29 µM
  TGI: 32.3 µM
U251 CNS
  GI50: 2.15 µM
  TGI: 5.38 µM
HS 578T breast
  GI50: 4.66 µM
  TGI: > 100 µM
SK-MEL-2 melanoma
  GI50: 14.8 µM
  TGI: 45.3 µM
LOX IMVI melanoma
  GI50: 2.3 µM
  TGI: 6.53 µM
HT29 colon
  GI50: 2.66 µM
  TGI: 6.14 µM
BT-549 breast
  GI50: 2.14 µM
  TGI: 6.25 µM
OVCAR-5 ovarian
  GI50: 3.97 µM
  TGI: 28.1 µM
SF-539 CNS
  GI50: 2.52 µM
  TGI: 8.83 µM
MOLT-4 leukemia
  GI50: 4.22 µM
  TGI: > 100 µM
SF-268 CNS
  GI50: 3.99 µM
  TGI: 64.6 µM
MCF7 breast
  GI50: 1.83 µM
  TGI: 10.5 µM
SK-OV-3 ovarian
  GI50: 5.08 µM
  TGI: 21.2 µM
MDA-MB-435
  GI50: 2.72 µM
  TGI: 10.7 µM
ACHN renal
  GI50: 4.16 µM
  TGI: 20.6 µM
NCI/ADR-RES ovarian
  GI50: 15.3 µM
  TGI: > 100 µM
NCI-H522 lung
  GI50: 6.89 µM
  TGI: 27.2 µM
HCT-116 colon
  GI50: 2.09 µM
  TGI: 5.12 µM
M14 melanoma
  GI50: 2.96 µM
  TGI: 11.8 µM
UACC-257 melanoma
  GI50: 7.45 µM
  TGI: 36 µM
HL-60(TB) leukemia
  GI50: 2.88 µM
  TGI: 33 µM
SNB-75 CNS
  GI50: 2.71 µM
  TGI: 27.6 µM
SNB-19 CNS
  GI50: 4.3 µM
  TGI: 73.2 µM
HOP-92 NSCLC
  GI50: 12.5 µM
  TGI: 56.6 µM
RXF 393 renal
  GI50: 2.16 µM
  TGI: 4.65 µM
CCRF-CEM leukemia
  GI50: 3.33 µM
  TGI: > 100 µM
UACC-62 melanoma
  GI50: 3.31 µM
  TGI: 17.5 µM
TK-10 renal
  GI50: 23.3 µM
  TGI: 58.8 µM
RPMI-8226 leukemia
  GI50: 1.51 µM
  TGI: 4.91 µM
EKVX NSCLC
  GI50: 4.03 µM
  TGI: 33.8 µM
OVCAR-8 ovarian
  GI50: 5.94 µM
  TGI: 34.9 µM
SF-295 CNS
  GI50: 5.25 µM
  TGI: > 100 µM
PC-3 prostate
  GI50: 4.29 µM
  TGI: 22.6 µM
KM12 colon
  GI50: 2.82 µM
  TGI: 8.18 µM
DU-145 prostate
  GI50: 6.09 µM
  TGI: > 100 µM
K-562 leukemia
  GI50: 3.44 µM
  TGI: > 100 µM
T-47D breast
  GI50: 5.44 µM
  TGI: 40.7 µM

## N#CSc1c[nH]c2ccc(/C=C/C(=O)/C=C(O)/C=C/c3ccc4[nH]cc(SC#N)c4c3)cc12
A498 renal
  GI50: 7.61 µM
  TGI: 55.4 µM
HOP-62 NSCLC
  GI50: 3.82 µM
  TGI: 19.8 µM
MDA-MB-231 breast
  GI50: 1.72 µM
  TGI: 3.61 µM
OVCAR-3 ovarian
  GI50: 0.515 µM
  TGI: 4.06 µM
SK-MEL-5 melanoma
  GI50: 1.52 µM
  TGI: 3.48 µM
HCC-2998 colon
  GI50: 3.82 µM
  TGI: 16.6 µM
OVCAR-4 ovarian
  GI50: 1.42 µM
  TGI: 18.6 µM
SN12C renal
  GI50: 1.92 µM
  TGI: 10.9 µM
SW-620 colon
  GI50: 0.668 µM
  TGI: 2.35 µM
SR leukemia
  GI50: 0.505 µM
  TGI: 6.14 µM
NCI-H23 lung
  GI50: 2.95 µM
  TGI: 13.6 µM
IGROV1 ovarian
  GI50: 1.19 µM
  TGI: 8.41 µM
UO-31 renal
  GI50: 0.344 µM
  TGI: 1.66 µM
NCI-H460 lung
  GI50: 3.01 µM
  TGI: 11.2 µM
A549 NSCLC
  GI50: 3.25 µM
  TGI: 14.7 µM
MALME-3M melanoma
  GI50: 2.22 µM
  TGI: 5.91 µM
COLO 205 colon
  GI50: 1.55 µM
  TGI: 3.7 µM
HCT-15 colon
  GI50: 0.416 µM
  TGI: 2.11 µM
786-0 renal
  GI50: 0.956 µM
  TGI: 9.53 µM
SK-MEL-28 melanoma
  GI50: 2 µM
  TGI: 5.76 µM
U251 CNS
  GI50: 1.17 µM
  TGI: 9.09 µM
HS 578T breast
  GI50: 2.98 µM
  TGI: 35.2 µM
SK-MEL-2 melanoma
  GI50: 3.23 µM
  TGI: 12.3 µM
LOX IMVI melanoma
  GI50: 0.483 µM
  TGI: 1.83 µM
HT29 colon
  GI50: 1.42 µM
  TGI: 3.84 µM
BT-549 breast
  GI50: 1.52 µM
  TGI: 8.04 µM
OVCAR-5 ovarian
  GI50: 3.6 µM
  TGI: 14.8 µM
SF-539 CNS
  GI50: 2.87 µM
  TGI: 10.6 µM
MOLT-4 leukemia
  GI50: 1.61 µM
  TGI: 5.44 µM
SF-268 CNS
  GI50: 2.65 µM
  TGI: 13.1 µM
MCF7 breast
  GI50: 0.871 µM
  TGI: 4.15 µM
SK-OV-3 ovarian
  GI50: 20.3 µM
  TGI: 80.2 µM
MDA-MB-435
  GI50: 2.06 µM
  TGI: 7.03 µM
ACHN renal
  GI50: 0.568 µM
  TGI: 3.3 µM
CAKI-1 renal
  GI50: 1.58 µM
  TGI: 4.1 µM
NCI/ADR-RES ovarian
  GI50: 3.22 µM
  TGI: 52.7 µM
NCI-H522 lung
  GI50: 0.886 µM
  TGI: 2.79 µM
HCT-116 colon
  GI50: 0.296 µM
  TGI: 1.19 µM
M14 melanoma
  GI50: 0.864 µM
  TGI: 3.58 µM
UACC-257 melanoma
  GI50: 2.79 µM
  TGI: 12.5 µM
HL-60(TB) leukemia
  GI50: 0.902 µM
  TGI: 4.34 µM
SNB-75 CNS
  GI50: 3.1 µM
  TGI: 21.4 µM
SNB-19 CNS
  GI50: 3.25 µM
  TGI: 15.5 µM
HOP-92 NSCLC
  GI50: 1.63 µM
  TGI: 4.46 µM
RXF 393 renal
  GI50: 0.538 µM
  TGI: 2.93 µM
CCRF-CEM leukemia
  GI50: 0.612 µM
  TGI: 8.08 µM
UACC-62 melanoma
  GI50: 2.11 µM
  TGI: 7.11 µM
TK-10 renal
  GI50: 3.35 µM
  TGI: 23.8 µM
RPMI-8226 leukemia
  GI50: 1.56 µM
  TGI: 5.98 µM
EKVX NSCLC
  GI50: 1.97 µM
  TGI: 10.7 µM
OVCAR-8 ovarian
  GI50: 2.46 µM
  TGI: > 100 µM
SF-295 CNS
  GI50: 3.03 µM
  TGI: 13.3 µM
PC-3 prostate
  GI50: 0.343 µM
  TGI: 2.03 µM
KM12 colon
  GI50: 1.66 µM
  TGI: 5.47 µM
DU-145 prostate
  GI50: 1.92 µM
  TGI: 4.56 µM
NCI-H226 lung
  GI50: 1.95 µM
  TGI: 5.86 µM
T-47D breast
  GI50: 1.97 µM
  TGI: 8.82 µM
